Data published in patent publication US8158792B2, “Spiropiperidines for use as tryptase inhibitors” (Janssen Pharmaceutica N.V., priority 2007, dated 2012).

Molecular target: human lung tryptase
Assay: β-Tryptase In-Vitro Enzyme Assay
Type: biochemical
Conditions: human lung tryptase 1 nM, substrate H-D-HHT-Ala-Arg-pNa 500 μM, pH 7.4, room temperature
Protocol: The β-tryptase assay was conducted with human lung tryptase (Cortex Biochem #CP3033) in an aqueous buffer (10 mM Tris, 10 mM Hepes, 150 mM NaCl, 0.1% PEG 8000, pH 7.4) using the chromogenic substrate H-D-HHT-Ala-Arg-pNa. […] Percent inhibition was calculated by comparing the initial reaction velocity of samples without inhibitor to those with inhibitor. The initial reaction velocities were analyzed using Microsoft Excel.

Structure (SMILES): NCc1ccc2c(c1)C1(CCN(C(=O)/C=C/c3ccc4ccccc4c3)CC1)CO2 [Cpd 113, (E)-1-(naphthalene-2-ylethenyl)carbonyl-5′-aminomethyl-spiro[piperidine-4,3′-(2H)-benzo[b]furan]]
- IC50: 0.13 µM

Structure (SMILES): NCc1ccc2c(c1)C1(CCN(C(=O)c3ccc(-c4ccccc4)s3)CC1)CO2 [Cpd 114, 1-(5-phenyl-thien-2-yl)carbonyl-5′-aminomethyl-spiro[piperidine-4,3′-(2H)-benzo[b]furan]]
- IC50: 0.24 µM

Structure (SMILES): NCc1ccc2c(c1)C1(CCN(C(=O)c3cccc(Oc4ccccc4)c3)CC1)CO2 [Cpd 115, 1-(3-phenoxy-phenyl)carbonyl-5′-aminomethyl-spiro[piperidine-4,3′-(2H)-benzo[b]furan]]
- IC50: 0.24 µM

Structure (SMILES): NCc1ccc2c(c1)C1(CCN(C(=O)/C=C/c3ccc(Cl)c(Cl)c3)CC1)CO2 [Cpd 116, (E)-1-(3,4-dichloro-phenylethenyl)carbonyl-5′-aminomethyl-spiro[piperidine-4,3′-(2H)-benzo[b]furan]]
- IC50: 0.29 µM

Structure (SMILES): NCc1ccc2c(c1)C1(CCN(C(=O)/C=C/c3ccc(-c4ccccc4)cc3)CC1)CO2 [Cpd 117, (E)-1-(4-phenyl-phenylethenyl)carbonyl-5′-aminomethyl-spiro[piperidine-4,3′-(2H)-benzo[b]furan]]
- IC50: 0.6 µM

Structure (SMILES): Cc1nc(C)c(C(=O)N2CCC3(CC2)COc2ccc(CN)cc23)s1 [Cpd 118, 1-(2,4-dimethyl-thiazol-5-yl)carbonyl-5′-aminomethyl-spiro[piperidine-4,3′-(2H)-benzo[b]furan]]
- IC50: 0.11 µM

Structure (SMILES): Cc1ccc2nc(C(=O)N3CCC4(CC3)COc3ccc(CN)cc34)cn2c1 [Cpd 119, 1-(6-methyl-imidazo[1,2-a]pyridin-2-yl)carbonyl-5′-aminomethyl-spiro[piperidine-4,3′-(2H)-benzo[b]furan]]
- IC50: 1.4 µM

Structure (SMILES): NCc1ccc2c(c1)C1(CCN(C(=O)c3ccc(-c4ccccn4)s3)CC1)CO2 [Cpd 120, 1-(5-pyridin-2-yl-thien-2-yl)carbonyl-5′-aminomethyl-spiro[piperidine-4,3′-(2H)-benzo[b]furan]]
- IC50: 0.13 µM

Structure (SMILES): NCc1ccc2c(c1)C1(CCN(C(=O)c3csc(-c4cccnc4)n3)CC1)CO2 [Cpd 121, 1-(2-pyridin-3-yl-thiazol-4-yl)carbonyl-5′-aminomethyl-spiro[piperidine-4,3′-(2H)-benzo[b]furan]]
- IC50: 0.51 µM

Structure (SMILES): NCc1ccc2c(c1)C1(CCN(C(=O)c3csc(-c4ccncc4)n3)CC1)CO2 [Cpd 122, 1-(2-pyridin-4-yl-thiazol-4-yl)carbonyl-5′-aminomethyl-spiro[piperidine-4,3′-(2H)-benzo[b]furan]]
- IC50: 0.76 µM

Structure (SMILES): Cc1nc(-c2ccccc2)sc1C(=O)N1CCC2(CC1)COc1ccc(CN)cc12 [Cpd 123, 1-(2-phenyl-4-methyl-thiazol-5-yl)carbonyl-5′-aminomethyl-spiro[piperidine-4,3′-(2H)-benzo[b]furan]]
- IC50: 0.69 µM

Structure (SMILES): Cc1nc(-c2cccnc2)sc1C(=O)N1CCC2(CC1)COc1ccc(CN)cc12 [Cpd 124, 1-(2-pyridin-3-yl-4-methyl-thiazol-5-yl)carbonyl-5′-aminomethyl-spiro[piperidine-4,3′-(2H)-benzo[b]furan]]
- IC50: 1.1 µM

Structure (SMILES): Cc1ccc(-c2nc(C)c(C(=O)N3CCC4(CC3)COc3ccc(CN)cc34)s2)cc1 [Cpd 125, 1-[2-(4-methyl-phenyl)-4-methyl-thiazol-5-yl]carbonyl-5′-aminomethyl-spiro[piperidine-4,3′-(2H)-benzo[b]furan]]
- IC50: 7.5 µM

Structure (SMILES): NCc1ccc2c(c1)C1(CCN(C(=O)c3ccc4cc(Br)ccc4c3)CC1)CO2 [Cpd 126, 1-(6-bromo-naphthalen-2-yl)carbonyl-5′-aminomethyl-spiro[piperidine-4,3′-(2H)-benzo[b]furan]]
- IC50: 0.15 µM

Structure (SMILES): Cn1nc(C(F)(F)F)cc1-c1ccc(C(=O)N2CCC3(CC2)COc2ccc(CN)cc23)s1 [Cpd 127, 1-[5-(1-methyl-3-trifluoromethyl-pyrazol-5-yl)-thien-2-yl]carbonyl-5′-aminomethyl-spiro[piperidine-4,3′-(2H)-benzo[b]furan]]
- IC50: 3.7 µM

Structure (SMILES): Cc1nc(-c2ccc(C(F)(F)F)cc2)sc1C(=O)N1CCC2(CC1)COc1ccc(CN)cc12 [Cpd 128, 1-[2-(4-trifluoromethyl-phenyl)-4-methyl-thiazol-5-yl]carbonyl-5′-aminomethyl-spiro[piperidine-4,3′-(2H)-benzo[b]furan]]
- IC50: 0.17 µM

Structure (SMILES): NCc1ccc2c(c1)C1(CCN(C(=O)c3ccc(-c4cc(C(F)(F)F)ccc4Cl)o3)CC1)CO2 [Cpd 129, 1-[5-(2-chloro-5-trifluoromethyl-phenyl)-furan-2-yl]carbonyl-5′-aminomethyl-spiro[piperidine-4,3′-(2H)-benzo[b]furan]]
- IC50: 0.099 µM

Structure (SMILES): NCc1ccc2c(c1)C1(CCN(C(=O)c3ccc(-c4ccccc4)o3)CC1)CO2 [Cpd 130, 1-(5-phenyl-furan-2-yl)carbonyl-5′-aminomethyl-spiro[piperidine-4,3′-(2H)-benzo[b]furan]]
- IC50: 0.028 µM

Structure (SMILES): Cc1ccc(-c2ccc(C(=O)N3CCC4(CC3)COc3ccc(CN)cc34)o2)cc1 [Cpd 131, 1-[5-(4-methyl-phenyl)-furan-2-yl]carbonyl-5′-aminomethyl-spiro[piperidine-4,3′-(2H)-benzo[b]furan]]
- IC50: 0.072 µM

Structure (SMILES): COc1ccc(-c2ccc(C(=O)N3CCC4(CC3)COc3ccc(CN)cc34)o2)cc1 [Cpd 132, 1-[5-(4-methoxy-phenyl)-furan-2-yl]carbonyl-5′-aminomethyl-spiro[piperidine-4,3′-(2H)-benzo[b]furan]]
- IC50: 0.026 µM

Structure (SMILES): CC(C)(C)c1cc(C(=O)N2CCC3(CC2)COc2ccc(CN)cc23)cc(C(C)(C)C)c1 [Cpd 133, 1-(3,5-di-tert-butyl-phenyl)carbonyl-5′-aminomethyl-spiro[piperidine-4,3′-(2H)-benzo[b]furan]]
- IC50: 0.081 µM

Structure (SMILES): NCc1ccc2c(c1)C1(CCN(C(=O)c3ccc(COc4cccc(Cl)c4)o3)CC1)CO2 [Cpd 134, 1-[5-(3-chloro-phenoxymethyl)-furan-2-yl]carbonyl-5′-aminomethyl-spiro[piperidine-4,3′-(2H)-benzo[b]furan]]
- IC50: 0.076 µM

Structure (SMILES): NCc1ccc2c(c1)C1(CCN(C(=O)c3ccc(-c4cccc(C(F)(F)F)c4)o3)CC1)CO2 [Cpd 135, 1-[5-(3-trifluoromethyl-phenyl)-furan-2-yl]carbonyl-5′-aminomethyl-spiro[piperidine-4,3′-(2H)-benzo[b]furan]]
- IC50: 0.33 µM

Structure (SMILES): NCc1ccc2c(c1)C1(CCN(C(=O)c3ccc(-c4ccc(Cl)cc4Cl)o3)CC1)CO2 [Cpd 136, 1-[5-(2,4-dichloro-phenyl)-furan-2-yl]carbonyl-5′-aminomethyl-spiro[piperidine-4,3′-(2H)-benzo[b]furan]]
- IC50: 0.025 µM

Structure (SMILES): NCc1ccc2c(c1)C1(CCN(C(=O)c3ccc(-c4cc(Cl)ccc4Cl)o3)CC1)CO2 [Cpd 137, 1-[5-(2,5-dichloro-phenyl)-furan-2-yl]carbonyl-5′-aminomethyl-spiro[piperidine-4,3′-(2H)-benzo[b]furan]]
- IC50: 0.053 µM

Structure (SMILES): NCc1ccc2c(c1)C1(CCN(C(=O)c3ccc(-c4ccc(Cl)c(Cl)c4)o3)CC1)CO2 [Cpd 138, 1-[5-(3,4-dichloro-phenyl)-furan-2-yl]carbonyl-5′-aminomethyl-spiro[piperidine-4,3′-(2H)-benzo[b]furan]]
- IC50: 0.14 µM

Structure (SMILES): Cc1cc(OCc2ccc(C(=O)N3CCC4(CC3)COc3ccc(CN)cc34)o2)ccc1Cl [Cpd 139, 1-[5-(3-methyl-4-chloro-phenoxymethyl)-furan-2-yl]carbonyl-5′-aminomethyl-spiro[piperidine-4,3′-(2H)-benzo[b]furan]]
- IC50: 0.087 µM

Structure (SMILES): NCc1ccc2c(c1)C1(CCN(C(=O)c3ccc(-c4ccc(Br)cc4)o3)CC1)CO2 [Cpd 140, 1-[5-(4-bromo-phenyl)-furan-2-yl]carbonyl-5′-aminomethyl-spiro[piperidine-4,3′-(2H)-benzo[b]furan]]
- IC50: 0.04 µM

Structure (SMILES): NCc1ccc2c(c1)C1(CCN(C(=O)c3cncc(-c4ccccc4)c3)CC1)CO2 [Cpd 142, 1-(5-phenyl-pyridin-3-yl)carbonyl-5′-aminomethyl-spiro[piperidine-4,3′-(2H)-benzo[b]furan]]
- IC50: 0.65 µM

Structure (SMILES): NCc1ccc2c(c1)C1(CCN(C(=O)c3cncc(-c4cccs4)c3)CC1)CO2 [Cpd 143, 1-(5-thien-2-yl-pyridin-3-yl)carbonyl-5′-aminomethyl-spiro[piperidine-4,3′-(2H)-benzo[b]furan]]
- IC50: 0.056 µM

Structure (SMILES): COc1cccc(-c2ccc(C(=O)N3CCC4(CC3)COc3ccc(CN)cc34)o2)c1 [Cpd 144, 1-[5-(3-methoxy-phenyl)-furan-2-yl]carbonyl-5′-aminomethyl-spiro[piperidine-4,3′-(2H)-benzo[b]furan]]
- IC50: 0.03 µM

Structure (SMILES): NCc1ccc2c(c1)C1(CCN(C(=O)c3ccc(Cn4cc(Cl)cn4)o3)CC1)CO2 [Cpd 145, 1-[5-(4-chloro-pyrazol-1-ylmethyl)-furan-2-yl]carbonyl-5′-aminomethyl-spiro[piperidine-4,3′-(2H)-benzo[b]furan]]
- IC50: 0.34 µM

Structure (SMILES): NCc1ccc2c(c1)C1(CCN(C(=O)c3ccc(C#Cc4ccccc4Cl)o3)CC1)CO2 [Cpd 146, 1-[5-(2-chloro-phenylethynyl)-furan-2-yl]carbonyl-5′-aminomethyl-spiro[piperidine-4,3′-(2H)-benzo[b]furan]]
- IC50: 0.0052 µM

Structure (SMILES): NCc1ccc2c(c1)C1(CCN(C(=O)c3ccc(CSCc4ccccc4)o3)CC1)CO2 [Cpd 147, 1-[5-(benzylthiomethyl)-furan-2-yl]carbonyl-5′-aminomethyl-spiro[piperidine-4,3′-(2H)-benzo[b]furan]]
- IC50: 0.066 µM

Structure (SMILES): Cc1cc(C)nc(SCc2ccc(C(=O)N3CCC4(CC3)COc3ccc(CN)cc34)o2)n1 [Cpd 148, 1-[5-(4,6-dimethyl-pyrimidin-2-ylthiomethyl)-furan-2-yl]carbonyl-5′-aminomethyl-spiro[piperidine-4,3′-(2H)-benzo[b]furan]]
- IC50: 0.33 µM

Structure (SMILES): NCc1ccc2c(c1)C1(CCN(C(=O)c3ccc(Oc4cc(Cl)cc(Cl)c4)o3)CC1)CO2 [Cpd 149, 1-[5-(3,5-dichloro-phenoxy)-furan-2-yl]carbonyl-5′-aminomethyl-spiro[piperidine-4,3′-(2H)-benzo[b]furan]]
- IC50: 0.11 µM
